This passage reports melting point and IC50 results from US7345068B2, “Aromatic amino acid derivatives and medicinal compositions” (priority 2002, dated 2008).

Data set [1] addresses T1, LAT1 (Homo sapiens, UniProt Q01650).
T1 construct: Using human bladder cancer cell strain T24 cells, in which LAT1 only was strongly expressed; endogenous in cells; host or cells: T24 human bladder cancer cells
Put plainly: LAT1 inhibiting activity: inhibition of 14C-L-leucine uptake in T24 cells. Type of data set: cell-based. The following applies: 1 μM 14C-Leu, 1-minute uptake. On the procedure:
1) To each of the weighed test compounds, DMSO was added to prepare a 100 mM solution or suspension as a DMSO stock. In an assay, the stock was diluted 1,000 fold with a buffer described below. The final concentration of the test compound was 100 μM and the final concentration of DMSO was 0.1%.
2) The LAT1 inhibiting activity of the test compound was determined in the following manner. Using human bladder cancer cell strain T24 cells, in which LAT1 only was strongly expressed, inhibiting activity of each test compound against “^14C”-L-leucine uptake was determined as the LAT1 inhibiting activity.
T24 cells in a logarithmic growth-phase were transferred to a 24-well plate at 0.8×10^5 cell/well and cultured at 37° C. for 2 days. After the plate was incubated at 37° C. on a water bath for 5 minutes, the fixed cells were washed three times with a Hank's balanced salt solution (HBSS: 25 mM HEPES, 125 mM choline chloride, 5.6 mM glucose, 4.8 mM KCl, 1.2 mM MgSO4, 1.2 mM KH2PO4, 1.3 mM CaCl2, pH 7.4) warmed to 37° C., not containing Na^+, to which 500 μl of HBSS (37° C.) was added. Then, further incubation was carried out for 7 minutes.
After the incubation was finished, a supernatant was replaced with HBSS containing 1 μM ^14C-Leu and 100 μM test compound (37° C.), followed by 1-minute uptake. Then, the cells were washed three times with HBSS of 4° C. The washed cells were added with 500 μl of 0.1 N NaOH to dissolve the cells for 20 minutes. The cell solution was transferred to a vial, to which 3 ml of a scintillator was added to measure the radioactivity with a liquid scintillation counter.
Inhibition % was calculated by the following formula. Inhibition %=100−(radioactivity of the well added with the test compound)/(radioactivity of the well not added with the test compound)×100

Structures can show the parent of a compound that is named as a salt.

The melting point is the temperature of the solid-liquid transition. As a reminder, the IC50 is the midpoint of a concentration-inhibition curve.

T1 sequence (Q01650 whole entry): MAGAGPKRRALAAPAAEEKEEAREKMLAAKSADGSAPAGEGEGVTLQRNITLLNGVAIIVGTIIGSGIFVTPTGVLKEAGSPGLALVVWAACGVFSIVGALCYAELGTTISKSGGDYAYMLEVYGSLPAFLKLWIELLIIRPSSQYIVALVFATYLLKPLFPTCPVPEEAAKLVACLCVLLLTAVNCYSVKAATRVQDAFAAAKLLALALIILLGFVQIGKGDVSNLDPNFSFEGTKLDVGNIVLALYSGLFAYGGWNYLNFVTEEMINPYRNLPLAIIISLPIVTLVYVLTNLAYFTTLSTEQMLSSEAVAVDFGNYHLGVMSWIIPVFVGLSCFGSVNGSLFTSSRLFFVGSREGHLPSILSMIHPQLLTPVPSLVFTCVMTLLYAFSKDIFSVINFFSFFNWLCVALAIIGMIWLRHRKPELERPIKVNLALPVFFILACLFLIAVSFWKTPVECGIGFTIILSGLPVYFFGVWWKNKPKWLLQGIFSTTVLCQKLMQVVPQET
T1 sequence (P08195 102-630 partner): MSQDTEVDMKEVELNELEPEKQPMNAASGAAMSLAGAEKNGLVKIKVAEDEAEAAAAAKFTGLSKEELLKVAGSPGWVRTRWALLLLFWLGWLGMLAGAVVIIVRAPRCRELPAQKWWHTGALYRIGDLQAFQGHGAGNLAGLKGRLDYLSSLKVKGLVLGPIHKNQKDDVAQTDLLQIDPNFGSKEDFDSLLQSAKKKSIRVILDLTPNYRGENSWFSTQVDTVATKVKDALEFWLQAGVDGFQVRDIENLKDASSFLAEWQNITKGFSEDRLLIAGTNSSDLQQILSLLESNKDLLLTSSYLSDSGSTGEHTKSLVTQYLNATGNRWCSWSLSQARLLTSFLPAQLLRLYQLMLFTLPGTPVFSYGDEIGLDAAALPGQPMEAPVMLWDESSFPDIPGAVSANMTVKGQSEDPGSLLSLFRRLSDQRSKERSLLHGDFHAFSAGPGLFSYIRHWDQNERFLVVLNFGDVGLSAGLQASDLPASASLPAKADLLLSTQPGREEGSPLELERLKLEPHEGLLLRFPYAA

Turning to `COC(=O)c1c(-c2ccccc2)oc2c(COc3c(Cl)cc(C[C@H](N)C(=O)O)cc3Cl)cccc2c1=O` (as salt: HCl) [Example 87], the melting point was 222.5 to 224 °C (dec.). For the compound `CN(C)c1ccc(-c2cccc(Oc3cccc(C[C@H](N)C(=O)O)c3)c2)cn1` (as salt: hydrochloride) [Example 98], the melting point is 223 to 228 °C (dec.).

In the case of `N[C@@H](Cc1cc(I)c(OCCCBr)c(I)c1)C(=O)O` [Example 1, O-(3-bromopropyl)-3,5-diiodo-L-tyrosine], the melting point was 213 to 215 °C (dec.). As for `N[C@@H](Cc1cc(Cl)c(OCc2cccc3nc(-c4ccc(O)cc4)oc23)c(Cl)c1)C(=O)O` [Example 22], the melting point is 239 to 241 °C (dec.). In addition, the IC50 in data set [1] was 200 nM. In the same order, the values of `N[C@@H](Cc1cc(Cl)c(OCc2cccc3nc(-c4ccc(Cl)cc4)oc23)c(Cl)c1)C(=O)O` [Example 30] are 209 to 211 °C and 300 nM. The corresponding values for `N[C@@H](Cc1cc(Cl)c(OCc2cccc3nc(-c4ccc(F)cc4)oc23)c(Cl)c1)C(=O)O` [Example 32] are 233 to 236 °C (dec.) and 240 nM. The corresponding values for `N[C@@H](Cc1cc(Cl)c(OCc2cccc3nc(-c4ccncc4)oc23)c(Cl)c1)C(=O)O` [Example 33] are 214 to 218 °C (dec.) and 150 nM. In the case of `N[C@@H](Cc1cc(Cl)c(OCc2cccc3nc(-c4ccco4)oc23)c(Cl)c1)C(=O)O` [Example 34], the melting point is 227 to 230 °C (dec.). This compound gave an IC50 in data set [1] of 290 nM. The corresponding values for `COc1ccc(-c2nc3cc(C)cc(COc4c(Cl)cc(C[C@H](N)C(=O)O)cc4Cl)c3o2)cc1` [Example 35] are 210 to 213 °C (dec.) and 280 nM. The corresponding values for `Cc1ccc(-c2nc3cccc(COc4c(Cl)cc(C[C@H](N)C(=O)O)cc4Cl)c3o2)cc1` [Example 36] are 221 to 231 °C (dec.) and 200 nM. Regarding `CN(C)c1ccc(-c2nc3cccc(COc4c(Cl)cc(C[C@H](N)C(=O)O)cc4Cl)c3o2)cc1` [Example 37], the melting point is 219 to 222 °C (dec.). For the same compound, the midpoint of inhibition in data set [1], the IC50, lay at 130 nM. The corresponding values for `N[C@@H](Cc1cc(Cl)c(OCc2cccc3oc(-c4ccccc4)nc23)c(Cl)c1)C(=O)O` [Example 38] are 219 to 223 °C (dec.) and 330 nM. In the case of `Cc1c(-c2ccccc2)oc2c(COc3c(Cl)cc(C[C@H](N)C(=O)O)cc3Cl)cccc2c1=O` [Example 39], the melting point was 202 to 204 °C (dec.). The compound also displayed an IC50 in data set [1] of 230 nM. In data set [1], `N[C@@H](Cc1cc(Cl)c(OCc2cccc3nc(-c4cccc(O)c4)oc23)c(Cl)c1)C(=O)O` [Example 48] returned an IC50 of 300 nM. Turning to `N[C@@H](Cc1cccc(Oc2ccc3ccccc3c2)c1)C(=O)O` [Example 49-2), 3-(2-naphthyloxy)-L-phenylalanine], the melting point was 210 to 214 °C (dec.). This compound came in with an IC50 in data set [1] of 100 nM. In the same order, the values of `N[C@@H](Cc1cccc(Oc2ccc3[nH]ccc3c2)c1)C(=O)O` [Example 52] are 205 to 210 °C (dec.) and 500 nM.

Turning to `N[C@@H](Cc1cccc(Oc2cccc(-c3ccccc3)c2)c1)C(=O)O` [Example 53], the melting point is 203 to 206 °C (dec.). For the same compound, in data set [1], the midpoint of inhibition, the IC50, lay at 120 nM. As to `N[C@@H](Cc1cccc(Oc2cccc3ccccc23)c1)C(=O)O` [Example 54], the melting point is 180 to 186 °C (dec.). In addition, the IC50 in data set [1] stood at 710 nM.

With `COc1ccc2cc(Oc3cccc(C[C@H](N)C(=O)O)c3)ccc2c1` [Example 55, 3-[2-(6-methoxy)naphthyloxy]-L-phenylalanine], the melting point was 202 to 206 °C (dec.). The compound further returned an IC50 in data set [1] of 290 nM. Turning to `N[C@@H](Cc1cccc(Oc2ccc3cc(O)ccc3c2)c1)C(=O)O` [Example 56, 3-[2-(6-hydroxy)naphthyloxy]-L-phenylalanine], the melting point is 210 to 220 °C (dec.). Also, the IC50 in data set [1] is 260 nM. With `N[C@@H](Cc1cccc(OCc2ccc3ccccc3c2)c1)C(=O)O` [Example 58, 3-[(2-naphthyl)methoxy]-L-phenylalanine], the melting point was 201 to 204 °C (dec.). Moreover, the IC50 in data set [1] amounted to 490 nM.

For the compound `N[C@@H](Cc1cc(Cl)c(OCc2cccc3nc(Cc4ccccc4)oc23)c(Cl)c1)C(=O)O` [Example 63], the melting point is 198 to 200.5 °C (dec.). In data set [1], this compound yielded an IC50 of 940 nM.

As for `CN(C)c1ccc(-c2nc3cccc(COc4c(Cl)cc(C[C@H](N)C(=O)O)cc4Cl)c3o2)cn1` [Example 65], the melting point was 233 to 236 °C (dec.). Also, in data set [1], the IC50 was determined as 330 nM. For `CN(C)c1ncc(-c2nc3cccc(COc4c(Cl)cc(C[C@H](N)C(=O)O)cc4Cl)c3o2)cn1` [Example 70], the melting point was 218 to 221 °C (dec.). In data set [1], this compound had an IC50 of 290 nM. Regarding `NC(Cc1cc(Cl)c(OCc2cccc3c2OC(c2ccccc2)CN3)c(Cl)c1)C(=O)O` (stereo not drawn) [Example 71], the melting point was 199 to 204 °C (dec.). Moreover, in data set [1], the IC50 was 370 nM.

For the compound `CN(CCO)c1ncc(-c2nc3cccc(COc4c(Cl)cc(C[C@H](N)C(=O)O)cc4Cl)c3o2)cn1` [Example 72], the melting point was 212 to 215 °C (dec.). The same compound registered a concentration for half-maximal inhibition (IC50) in data set [1] of 360 nM. In the same order, the values of `N[C@@H](Cc1cc(Cl)c(OCc2cccc3nc4n(c23)Cc2ccccc2-4)c(Cl)c1)C(=O)O` [Example 73] are 200 to 208 °C (dec.) and 110 nM. The corresponding values for `COc1ncc(-c2nc3cccc(COc4c(Cl)cc(C[C@H](N)C(=O)O)cc4Cl)c3s2)c(OC)n1` [Example 74] are 210 to 215 °C (dec.) and 950 nM. As for `N[C@@H](Cc1cc(Cl)c(OCc2cccc3c(=O)c(CO)c(-c4ccccc4)oc23)c(Cl)c1)C(=O)O` [Example 81], the melting point is 218 to 221 °C (dec.). The same compound returned an IC50 in data set [1] of 200 nM.

As for `Nc1c(-c2ccccc2)oc2c(COc3c(Cl)cc(C[C@H](N)C(=O)O)cc3Cl)cccc2c1=O` [Example 83], the melting point is 226 to 230 °C (dec.). Also, the IC50 in data set [1] was determined as 550 nM.

`N[C@@H](Cc1cc(Cl)c(OCc2cccc3nc(-c4ccccc4)[nH]c23)c(Cl)c1)C(=O)O` [Example 85]: the melting point was 183 to 187 °C (dec.). Also, in data set [1], the IC50 is 270 nM.

Regarding `COC(=O)c1c(-c2ccccc2)oc2c(COc3c(Cl)cc(C[C@H](N)C(=O)O)cc3Cl)cccc2c1=O` [Example 87], the half-inhibitory concentration (IC50) in data set [1] is 230 nM.

As for `Cc1cc(C[C@H](N)C(=O)O)cc(C)c1OCc1cccc2nc(-c3ccccc3)oc12` [Example 90], the melting point was 203 to 210 °C (dec.). In data set [1], this compound returned an IC50 of 110 nM. As for `Cc1c(-c2ccccc2)oc2c(CNc3c(Cl)cc(C[C@H](N)C(=O)O)cc3Cl)cccc2c1=O` [Example 91], the melting point is 207 to 210 °C (dec.). This compound also yielded an IC50 in data set [1] of 100 nM. As for `N[C@@H](Cc1cccc(Oc2ccc(-c3ccccc3)cc2)c1)C(=O)O` [Example 93], the melting point is 214 to 217 °C (dec.). The IC50 in data set [1] came out at 170 nM. `CN(C)c1ccc(-c2cccc(Oc3cccc(C[C@H](N)C(=O)O)c3)c2)cn1` [Example 98]: the concentration for half-maximal inhibition (IC50) in data set [1] amounted to 200 nM.
